The values below are quoted from earlier work in patent US20210137919A1, “PHARMACEUTICAL FORMULATIONS, METHOD FOR PRODUCING A PHARMACEUTICAL FORMULATION, AND MEDICAMENT COMPRISING SAME” (SmaWa GmbH, priority 2018, published 2021).

The structures appear in SMILES notation.

Turning to `CN1CC(=O)N2[C@H](c3ccc4c(c3)OCO4)c3[nH]c4ccccc4c3C[C@@H]2C1=O` [tadalafil], the solubility in water is 2 to 3.2 µg/mL.
